Laboratory results published in publication PMC5319851 (Bioorganic & medicinal chemistry, 2016).

Legend:
RpMetAP1 = RpMetAP1 (Rickettsia prowazekii, UniProt Q9ZCD3)
HsMetAP2 = details: read-out: HsMetAP2 IC50; cited from earlier work
HsMetAP1 = details: read-out: HsMetAP1 IC50; cited from earlier work
[1] = system: primary pulmonary vascular endothelial cells (ECs)

RpMetAP1, sequence (Q9ZCD3 whole entry, looked up): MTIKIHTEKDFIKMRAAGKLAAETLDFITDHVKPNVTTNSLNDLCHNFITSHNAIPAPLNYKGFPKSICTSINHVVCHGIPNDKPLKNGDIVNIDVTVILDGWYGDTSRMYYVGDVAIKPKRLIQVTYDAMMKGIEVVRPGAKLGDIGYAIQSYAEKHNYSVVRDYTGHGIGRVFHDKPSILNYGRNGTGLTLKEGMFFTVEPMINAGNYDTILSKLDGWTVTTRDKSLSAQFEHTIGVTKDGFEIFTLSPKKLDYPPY

Compound: Cc1cccc(-c2ccc(C(=O)O)o2)c1 [Compound 9]
- Hill Slope (furoic acid species) (RpMetAP1): 1.0 ± 0.1

Compound: O=[N+]([O-])c1cc(CN2CCOCC2)c(O)c2ncccc12 [Compound 26]
- Hill Slope (quinolinol species) (RpMetAP1): 1.0 ± 0.1

Compound: Cc1ccc2cccc(O)c2n1 [Compound 20, 2-methyl-8-quinolinol]
- IC50 (HsMetAP2): 2.03 ± 0.3 µM
- Hill Slope (quinolinol species) (RpMetAP1): 1.1 ± 0.1
- IC50 (HsMetAP1): > 15 µM

Compound: Oc1ccc(Cl)c2cccnc12 [Compound 22, 5-chloro-8-quinolinol]
- Hill Slope (quinolinol species) (RpMetAP1): 1.9 ± 0.2

Compound: Oc1c(CN2CCOCC2)cc(Cl)c2cccnc12 [Compound 24]
- Hill Slope (quinolinol species) (RpMetAP1): 1.5 ± 0.1

Compound: Cc1ccccc1-c1ccc(C(=O)O)o1 [Compound 8]
- Hill Slope (furoic acid species) (RpMetAP1): 1.3 ± 0.1

Compound: O=[N+]([O-])c1ccc(O)c2ncccc12 [Compound 23, nitroxoline, reference compound]
- Hill Slope (quinolinol species) (RpMetAP1): 1.7 ± 0.5

Compound: O=C(O)c1ccc(-c2ccccc2C(F)(F)F)o1 [Compound 6]
- Hill Slope (furoic acid species) (RpMetAP1): 2.1 ± 0.1

Compound: CC(C)(C)c1ccc(CSc2nnc(N)[nH]2)cc1 [Compound 19]
- IC50 (HsMetAP2): > 15 µM
- IC50 (HsMetAP1): > 15 µM

Compound: O=C(O)c1ccc(-c2ccc(Br)cc2)o1 [Compound 7]
- Hill Slope (furoic acid species) (RpMetAP1): 1.0 ± 0.1

Compound: O=C(O)c1ccc(-c2cccc(C(F)(F)F)c2)o1 [Compound 3]
- Hill Slope (furoic acid species) (RpMetAP1): 1.0 ± 0.1

Compound: Nc1nnc(SCc2ccc(Cl)cc2)[nH]1 [Compound 16]
- Effect of compound alone on appearance of EC monolayers [1]: no overt effect on the appearance of the monolayers
- Host EC metabolism (WST-1) of uninfected ECs [1]: stimulated EC metabolism

Compound: Nc1n[nH]c(SCc2ccccc2Cl)n1 [Compound 15]
- Host EC metabolism (WST-1) of uninfected ECs [1]: stimulated EC metabolism

Compound: Cc1ccc(-c2ccc(C(=O)O)o2)cc1 [Compound 5]
- Hill Slope (furoic acid species) (RpMetAP1): 1.0 ± 0.1

Compound: O=C(O)c1ccc(-c2cccc([N+](=O)[O-])c2)o1 [Compound 2]
- Hill Slope (furoic acid species) (RpMetAP1): 1.0 ± 0.1

Compound: O=C(O)c1ccc(-c2ccccc2)o1 [Compound 4, 5-phenyl-2-furoic acid]
- Hill Slope (furoic acid species) (RpMetAP1): 1.0 ± 0.1

Compound: Nc1n[nH]c(SCc2ccccc2)n1 [Compound 12]
- Host EC metabolism (WST-1) of uninfected ECs [1]: stimulated EC metabolism
